Converted amounts (≈) assume the structure as drawn. Read-outs that look alike come from different tables or passages of the source.
Assay: Solubility of compound 1 in solvent (100 mg blended with 10 ml solvent, supernatant measured by HPLC)
Format: physicochemical
Settings: for solubility thermodynamic: thermodynamic from solid, read-out: Compound 1 concentration; for solubility thermodynamic / Compound 1 concentration: room temperature
Description: After thoroughly blending 100 mg of compound 1 with 10 ml each of 0.05 N hydrochloric acid solution, methanol, ethanol, propylene carbonate, polysorbate 80, polyethylene glycol 400, polyethylene glycol 300, glycerin, dimethylacetamide or propylene glycol at room temperature, the supernatant obtained by centrifugal separation of each mixture was separated off and used as a pharmaceutical solution. Comparative control samples were also prepared by thoroughly dissolving 100 mg of compound 1 with 10 ml each of purified water, sodium acetate buffer solution at pH 4.0 or sodium phosphate buffer solution at pH 6.8 at room temperature, and separating off the supernatant obtained by centrifugal separation. […] All of the samples of the present invention contained dissolved compound 1 at a concentration of 5 mg/ml or greater, which is a sufficient concentration for an injection. On the other hand, all of the comparative control samples contained dissolved compound 1 only at a concentration of 0.2 mg/ml or less, and therefore the concentration necessary for an injection could not be guaranteed.

concentration of dissolved compound 1 (all of the comparative control samples): ≤ 0.2 mg/mL
concentration of dissolved compound 1 (all of the samples of the present invention): ≥ 5 mg/mL
solubility thermodynamic (purified water, solvent: water, comparative control sample): 40 µg/mL (≈ 106 µM)
solubility thermodynamic (simulated gastric fluid, solvent: 0.05 N hydrochloric acid solution): 14000 µg/mL (≈ 37200 µM)
solubility thermodynamic (sodium acetate buffer solution, aqueous buffer, solvent: sodium acetate buffer, pH 4.0, comparative control sample): 200 µg/mL (≈ 531 µM)
solubility thermodynamic (sodium phosphate buffer solution, aqueous buffer, solvent: phosphate buffer, pH 6.8, comparative control sample): 40 µg/mL (≈ 106 µM)
Compound 1 concentration (solvent: dimethylacetamide): >100 mg/mL
Compound 1 concentration (solvent: ethanol): 5.4 mg/mL
Compound 1 concentration (solvent: glycerin): 10.0 mg/mL
Compound 1 concentration (solvent: methanol): 9.9 mg/mL
Compound 1 concentration (solvent: polyethylene glycol 300): 69.1 mg/mL
Compound 1 concentration (solvent: polyethylene glycol 400): 77.7 mg/mL
Compound 1 concentration (solvent: polysorbate 80): 29.9 mg/mL
Compound 1 concentration (solvent: propylene carbonate): 17.5 mg/mL
Compound 1 concentration (solvent: propyleneglycol): 54.6 mg/mL
Compound: Nc1ccccc1NC(=O)c1ccc(CNC(=O)OCc2cccnc2)cc1 [Compound 1]

Source: patent US6638530B1, “Benzamide formulation with histone deacetylase inhibitor activity” (Schering Aktiengesellschaft, priority 1999, dated 2003)
